Patent US6492434B1, “Methods for inhibiting skin ulceration by use of cyanoacrylate adhesives” (Flowers PArk Ltd., priority 1995, dated 2002)

System: decubitus ulcers
Assay: Evaluation of n-butyl cyanoacrylate adhesive on inhibition of decubitus ulcers in 17 adult nursing home patients
Assay type: in vivo, human
Protocol: An evaluation of the effect of n-butyl cyanoacrylate adhesive on the inhibition of decubitus ulcers in 17 adult patients located in nine different nursing homes was conducted. In this example, 17 patients were selected based on a history of recurring decubitus ulcer formation or, based on medical evaluation, were deemed to be at high risk of developing decubitus ulcers. A prophylactic treatment regimen was then employed on these patients which regimen consisted of using conventional pressure ulcer preventative practices primarily involving periodic rotation of the patient as well as application of an n-butyl cyanoacrylate adhesive composition onto the intact skin areas which appeared likely to develop pressure ulcers by virtue of irritation and reddening of the skin or unbroken blister formation which is classified as a stage I decubitus ulcer or by application of the n-butyl cyanoacrylate composition onto intact skin adjacent to type II decubitus ulcers. Application of n-butyl cyanoacrylate consisted of application of about 1-5 drops of the n-butyl cyanoacrylate composition onto the surface skin area prone to ulceration wherein each drop corresponds to about 0.03 ml of cyanoacrylate.
The specific amount of n-butyl cyanoacrylate adhesive and point of application of the adhesive for each patient are set forth in the following Table I:
After application, the cyanoacrylate adhesive was allowed to form a polymeric film and, on average, reapplication of the adhesive was conducted every 24 hours until the evaluation was completed.

For `C=C(C#N)C(=O)OCCCC` [n-butyl cyanoacrylate adhesive, n-butyl-2-cyanoacrylate], the “expansion of stage II decubitus ulcer to adjacent skin areas” value (all patients treated in skin areas adjacent to stage II decubitus ulcer, plus conventional preventative practices) was “minimal expansion of the ulcer”, the “progression to stage II decubitus ulcer formation (broken skin)” value (all patients with redness/irritation or blistering (stage I) of intact skin, plus conventional pressure ulcer preventative practices) was “did not progress to stage II decubitus ulcer formation” and the RESULT (patient 1, heel, redness 3 cm, 2 drops, reapplied about every 24 h, plus conventional preventative practices) was “NO BREAKDOWN OF SKIN ON HEEL”. The RESULT (patient 2, heel, redness 3 cm, 2 drops, reapplied about every 24 h, plus conventional practices) was “LESS PERSPIRATION AND NO IRRITATION”, the RESULT (patient 3, heels (2), blister (Stage I) 3-4 cm, 2 drops, reapplied about every 24 h, plus conventional practices) was “NO BREAKDOWN OF BLISTER TO STAGE II” and the RESULT (patient 4, heels (2) and elbows (2), redness 3-5 cm, 2 drops, reapplied about every 24 h, plus conventional practices) was “NO SKIN BREAKDOWN ON HEELS OR ELBOWS”. For the same compound, the RESULT (patient 5, cheek, redness ½-3 in, 2 drops, reapplied about every 24 h, plus conventional practices) was “NO IRRITATION DEVELOPED”, the RESULT (patient 6, lower leg, bruise 2-3 in, 4-5 drops, reapplied about every 24 h, plus conventional practices, listed as N-BUTYL CYANOACRYLATE ADHESIVES) was “NO SKIN BREAKDOWN” and the RESULT (patient 7, shoulder, bony prominence 3-4 cm, 3-4 drops, reapplied about every 24 h, plus conventional practices, listed as N-BUTYL CYANOACRYLATE ADHESIVES) was “SKIN DID NOT BREAKDOWN”. For the same compound, the RESULT (patient 8, hip, bony prominence 3-4 cm, 3-4 drops, reapplied about every 24 h, plus conventional practices) was “NO SKIN BREAKDOWN”, the RESULT (patient 9, heels (2), redness 5 cm, 1 drop, reapplied about every 24 h, plus conventional practices) was “NO IRRITATION/REDDENING LEFT” and the RESULT (patient 10, hip, blister (Stage I) 3-4 cm, 2 drops, treatment stopped) was “WARMING SENSATION UPON APPLICATION -”. The RESULT (patient 11, top of foot, redness 2-5 cm, 1 drop, reapplied about every 24 h, plus conventional practices) was “NO IRRITATION/REDDENlNG LEFT”, the RESULT (patient 12, heel, redness (scabbed over - healed stage II) 6-8 cm, 3 drops, reapplied about every 24 h, plus conventional practices) was “REDNESS HEALED UP” and the RESULT (patient 13, knees & heels, redness 2.5 cm, 3 drops, patient passed away due to other conditions) was “IRRITATION IMPROVED BUT PATIENT”. For the same compound, the RESULT (patient 14, heel, skin redness around Stage II ulcer 2.5 cm, 3 drops, reapplied about every 24 h, plus conventional practices) was “NO IRRITATION EVIDENT - HEELS ALMOST HEALED”, the RESULT (patient 15, heels (2), redness 2.5 cm, 3 drops, reapplied about every 24 h, plus conventional practices) was “PATIENT'S HEELS LOOK BETTER,” and the RESULT (patient 16, hip, redness (healed Stage II ulcer) 2 cm, 2-3 drops, reapplied about every 24 h, plus conventional practices) was “NO FURTHER BREAKDOWN, REDDENING STILL”.
